Here are results for seven compounds from US12043600B2, “Microbiocidal compounds” (SYNGENTA CROP PROTECTION AG, priority 2018, dated 2024).

Series [1] in a line: Photostability assay (Atlas Suntest). The format is physicochemical. Conditions: Suntest 750 W/m^2, spotted on microscope slides. On the procedure:
The testing method to measure the photostability data of each compound in table is D1 is as specifically described below. The objective of the photostability assay was to determine the stability of the individual test compounds in a strictly controlled and reproducible environment allowing a comparison of their photostability.
Method: Compounds were dissolved in methanol (HPLC grade) to give 1 g/L stock solutions. Compound stock solution (2 μl) was spotted onto microscope slides in a 3D printed holder and put into the Atlas Suntest. The spectral output power of the Suntest was set to 750 W/m^2, which is considered typical of the daily maximum (noon) irradiance level on a very bright British Summer day. At specific time points slides were removed from the Suntest and placed in 4D vials. Wash solvent made up of 50:40:10 H2O:MeCN:THF (1 mL) is then added to the vials and whirlimixed. The resulting solution is then subsampled to an HPLC vial to be analysed. A Waters UPLC system with Photodiode Array was used with a Waters reverse phase column (BEH C18, 100×2.1 mm×1.7 μm) and acetonitrile (HPLC grade) acidified water (0.2% formic acid) mobile phase at a flow rate of 0.6 mL/min. Peak detection was at the optimum wavelength and peak areas were used for quantification
Initial and subsequent measurements of peak area attributable to the test compound were used to provide a % parent remaining at 3 hours.

The next series deals with Phakopsora pachyrhizi. Description: Phakopsora pachyrhizi/Soybean/Preventative (Soybean Rust). The format is in vivo. The settings on record: 288 h.
A further series relates to Alternaria solani. The series can be described thus: Alternaria solani/Tomato/Leaf Disc (Early Blight). The format is in vivo. The settings on record: foliar, tomato leaf disc, compared to untreated control. A digest of the protocol:
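Tomato cv. Baby leaf disks on agar were sprayed with diluted formulated compound and inoculated with spores 2 days later. Incubation at 23° C./21° C. day/night, 80% rh, 12/12 h light; percent disease control versus untreated scored 5-7 days after application.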

Series [2] relates to Puccinia recondita f. sp. tritici. The series can be described thus: Puccinia recondita f. sp. tritici/Wheat/Leaf Disc Preventative (Brown Rust). The settings on record: foliar, 200 ppm, wheat leaf disc preventative, compared to untreated control, read-out: control of Puccinia recondita f. sp. tritici. The format is in vivo.
In series [3] the test system is Mycosphaerella arachidis (Cercospora arachidicola). Description: Mycosphaerella arachidis (Cercospora arachidicola)/Liquid Culture (Early Leaf Spot). The series is classed as cell-based. The settings on record: liquid culture, compared to untreated control. A digest of the protocol: (§1)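 Conidia from cryogenic storage were mixed directly into potato dextrose broth, then added to microtiter wells already holding the test compound dissolved in DMSO. Fungal growth in liquid culture was then assessed.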

Series [4] concerns Magnaporthe grisea (Pyricularia oryzae). Description: whole plant or invertebrate. The format is in vivo. Conditions: foliar, read-out: control of Magnaporthe grisea.
Series [5] deals with Glomerella lagenarium (Colletotrichum lagenarium). Description: Glomerella lagenarium (Colletotrichum lagenarium)/Liquid Culture (Anthracnose). The format is cell-based. Conditions: Colletotrichum orbiculare, liquid culture, compared to untreated control.
Series [6] relates to Monographella nivalis (Microdochium nivale). Description: Monographella nivalis (Microdochium nivale)/Liquid Culture (Foot Rot Cereals). The format is cell-based. The settings on record: liquid culture, compared to untreated control. The method in brief:
as §1

In series [7] the test system is Blumeria graminis f. sp. tritici (Erysiphe graminis f. sp. tritici). The series can be described thus: Blumeria graminis f. sp. tritici/Wheat/Leaf Disc Preventative (Powdery Mildew on Wheat). The format is in vivo. The settings on record: foliar, wheat leaf disc preventative, compared to untreated control. The method in brief: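 Wheat cv. Kanzler leaf segments on agar sprayed with formulated compound, inoculated with powdery mildew 1 day later and held at 20° C, 60% rh (24 h dark, then 12 h light/12 h dark). Percent disease control versus untreated scored 6-8 days after application.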

Series [8] deals with Botryotinia fuckeliana (Botrytis cinerea). Description: Botryotinia fuckeliana (Botrytis cinerea)/Liquid Culture (Gray Mould). The format is cell-based. The settings on record: liquid culture, compared to untreated control. On the procedure:
Conidia of the fungus from cryogenic storage are directly mixed into nutrient broth (Vogels broth). After placing a (DMSO) solution of test compound into a microtiter plate (96-well format), the nutrient broth containing the fungal spores is added.

Series [9] concerns Phaeosphaeria nodorum (Septoria nodorum). Description: Phaeosphaeria nodorum (Septoria nodorum)/Wheat/Leaf Disc Preventative (Glume Blotch). The series is classed as in vivo. Conditions: Parastagonospora nodorum, foliar, wheat leaf disc preventative, compared to untreated control. The method in brief:
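Wheat cv. Kanzler leaf discs on agar were sprayed with formulated compound diluted in water and inoculated with P. nodorum spores 2 days later. Discs kept at 20 °C, 75% rh, 12 h light/dark; percent disease control versus untreated scored 5–7 days after application.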

Series [10] relates to Mycosphaerella graminicola (Septoria tritici). The series can be described thus: Mycosphaerella graminicola (Septoria tritici)/Liquid Culture (Septoria Blotch). The format is cell-based. The settings on record: Zymoseptoria tritici; 20 ppm; liquid culture; compared to untreated control. The method in brief:
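Conidia from cryogenic storage mixed into potato dextrose broth and added to microtiter wells already holding DMSO solutions of test compound. Activity expressed as percentage disease control.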

A further series deals with Phytophthora infestans. Description: whole plant or invertebrate. The series is classed as in vivo. The settings on record: in Solanum lycopersicum, foliar, read-out: control of Phytophthora infestans.
A further series deals with Plasmopara viticola. Description: whole plant or invertebrate. The format is in vivo. Conditions: foliar, read-out: control of Plasmopara viticola.
The subject of series [11] is Puccinia recondita f. sp. tritici. The series can be described thus: Puccinia recondita f. sp. tritici/Wheat/Leaf Disc Curative (Brown Rust). The format is in vivo. The settings on record: foliar, wheat leaf disc curative, compared to untreated control. The method in brief: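 Curative leaf-disc test on wheat cv. Kanzler segments on agar, spore-inoculated and kept dark at 19° C, 75% rh; formulated compound in water applied 1 day after inoculation. Incubated at 19° C, 75% rh, 12 h light/12 h dark; percent disease control versus untreated scored 6-8 days after application.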

Series [12] concerns Thanatephorus cucumeris (Rhizoctonia solani). Description: Thanatephorus cucumeris (Rhizoctonia solani)/Liquid Culture (Foot Rot, Damping-Off). The settings on record: liquid culture, compared to untreated control. The format is cell-based. On the procedure:
Mycelia fragments of a newly grown liquid culture of the fungus are directly mixed into nutrient broth (PDB potato dextrose broth). After placing a (DMSO) solution of the test compounds into a microtiter plate (96-well format), the nutrient broth containing the fungal material is added.

The subject of another series is Pyrenophora teres. Description: Pyrenophora teres/Barley/Leaf Disc Preventative (Net Blotch). The series is classed as in vivo. Conditions: foliar, 200 ppm, barley leaf disc preventative, compared to untreated control, read-out: control of Pyrenophora teres. A digest of the protocol: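 Formulated compound, diluted in water, sprayed onto barley cv. Hasso leaf segments on agar; spore suspension inoculation followed 2 days after application. Results expressed as percentage disease control.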

[13] abbreviates: foliar, soybean leaf disc preventative, compared to untreated control, read-out: control of Phakopsora pachyrhizi.

The structures appear in SMILES notation. Where two headings read alike, the source gives them in different places.

As to `CO/C=C(\Oc1cccc(-n2cccc2)c1)C(=O)OC` [Compound X-1, reference compound], the “% Parent Remaining @ 3 hrs” value in [1] stood at 9%. Moreover, the pest or weed control at 0.6 ppm with Phakopsora pachyrhizi (Phakopsora pachyrhizi (Soybean rust), 0.6 ppm) amounted to 0%. Moreover, in the series with Phakopsora pachyrhizi (Phakopsora pachyrhizi (Soybean rust), 2 ppm), the pest or weed control at 2 ppm was 0%. Also, in the series with Phakopsora pachyrhizi (Phakopsora pachyrhizi (Soybean rust), 6 ppm), the pest or weed control at 6 ppm came to 0%. Besides, the pest or weed control at 20 ppm in the series on Phakopsora pachyrhizi (Phakopsora pachyrhizi (Soybean rust), 20 ppm) was 10%. For the same compound, the pest or weed control at 60 ppm with Phakopsora pachyrhizi (Phakopsora pachyrhizi (Soybean rust), 60 ppm) amounted to 10%. For the same compound, the pest or weed control at 200 ppm in the series on Phakopsora pachyrhizi (Phakopsora pachyrhizi (Soybean rust), read-out: control (%)) stood at 45%.
What is called inhibition of growth is how much of the control response was suppressed. Low readings indicate a weak effect, high ones a strong effect. As for `CO/C=C(\Oc1cc(-n2cc(I)cn2)ccc1C)C(=O)OC` [Compound E-60, methyl (Z)-2-[5-(4-iodopyrazol-1-yl)-2-methyl-phenoxy]-3-methoxy-prop-2-enoate], the pest or weed control at 200 ppm (in the series with Alternaria solani; in series [2]; in series [4]; in series [7]; in series [9]; with Phytophthora infestans) was at least 80% in each case. Besides, the pest or weed control at 200 ppm (with Plasmopara viticola; in series [11]) was at least 80% throughout. Also, the inhibition of growth at 20 ppm in [3], in series [5], in [6], in series [8], in series [10] and in [12] was at least 80% each time.
Consider `CO/C=C(\Oc1cc(-n2cc(C(C)C)cn2)ccc1C)C(=O)OC` [Compound E-57, methyl (Z)-2-[5-(4-isopropylpyrazol-1-yl)-2-methyl-phenoxy]-3-methoxy-prop-2-enoate], for which the pest or weed control at 200 ppm in the series with Alternaria solani is at least 80%; in [2], at least 80%; in series [4] it was at least 80%; in [7], at least 80%; in [9], at least 80%; in the series with Phakopsora pachyrhizi (setting [13]) it was at least 50%. The pest or weed control at 200 ppm (in the series on Phytophthora infestans; with Plasmopara viticola; in [11]) was at least 80% each time. Besides, the inhibition of growth at 20 ppm in series [3], in series [5], in series [6], in series [8], in series [10] and in series [12] was at least 80% each time.
The term melting point denotes the temperature, or range, at which the solid turns liquid. Regarding `CO/C=C(\Oc1cc(-n2ccc(C3=CCCCC3)n2)ccc1C)C(=O)OC` [Compound E-39, methyl (Z)-2-[5-[3-(cyclohexen-1-yl)pyrazol-1-yl]-2-methyl-phenoxy]-3-methoxy-prop-2-enoate], the melting point was in the range of 108 to 110 °C. The pest or weed control at 200 ppm with Alternaria solani is at least 80%. For the same compound, the pest or weed control at 200 ppm in series [2] is at least 80%. Besides, the inhibition of growth at 20 ppm in series [3] was at least 80%. Also, the pest or weed control at 200 ppm in series [4] is at least 80%. Also, the inhibition of growth at 20 ppm in series [5] is at least 80%. This compound also had an inhibition of growth at 20 ppm in series [6] of at least 80%. In [7], the pest or weed control at 200 ppm was at least 80%. For the same compound, the inhibition of growth at 20 ppm in series [8] is at least 80%. Moreover, the pest or weed control at 200 ppm in the series on Pyrenophora teres is at least 80%. The compound further yielded an inhibition of growth at 20 ppm in series [10] of at least 80%. In addition, the pest or weed control at 200 ppm with Phytophthora infestans was at least 80%. Further, the pest or weed control at 200 ppm with Plasmopara viticola was at least 80%. In series [11], this compound showed a pest or weed control at 200 ppm of at least 80%. The compound also registered an inhibition of growth at 20 ppm in series [12] of at least 80%.
`CO/C=C(\Oc1cc(-n2ccc(C(C)=NOC)n2)ccc1C)C(=O)OC` [Compound E-30, methyl (Z)-3-methoxy-2-[5-[3-(N-methoxy-C-methyl-carbonimidoyl)pyrazol-1-yl]-2-methyl-phenoxy]prop-2-enoate] had a melting point of 130 to 133 °C. For the same compound, the pest or weed control at 200 ppm in the series with Alternaria solani is at least 80%. For the same compound, the pest or weed control at 200 ppm in series [2] is at least 80%. In series [3], this compound had an inhibition of growth at 20 ppm of at least 80%. For the same compound, the pest or weed control at 200 ppm in series [4] was at least 80%. In series [5], this compound registered an inhibition of growth at 20 ppm of at least 80%. In series [6], this compound had an inhibition of growth at 20 ppm of at least 80%. In series [8], this compound gave an inhibition of growth at 20 ppm of at least 80%. This compound had a pest or weed control at 200 ppm in [9] of at least 80%. For the same compound, the pest or weed control at 200 ppm with Phakopsora pachyrhizi (setting [13]) is at least 50%. In series [10], this compound yielded an inhibition of growth at 20 ppm of at least 80%. Moreover, the pest or weed control at 200 ppm with Phytophthora infestans was at least 80%. In addition, the pest or weed control at 200 ppm in the series with Plasmopara viticola is at least 80%. For the same compound, the pest or weed control at 200 ppm in [11] is at least 80%. For the same compound, in series [12], the inhibition of growth at 20 ppm is at least 80%.
On to `CO/C=C(\Oc1cc(C)cc(-n2ccc(C(F)(F)F)n2)c1)C(=O)OC` [Compound E-34, methyl (Z)-3-methoxy-2-[3-methyl-5-[3-(trifluoromethyl)pyrazol-1-yl]phenoxy]prop-2-enoate], for which the pest or weed control at 200 ppm (in the series on Alternaria solani; in series [2]; in series [4]; in series [7]; in the series on Pyrenophora teres; in the series with Phytophthora infestans) was at least 80% in each case. Moreover, in the series on Plasmopara viticola, the pest or weed control at 200 ppm is at least 80%. Also, the inhibition of growth at 20 ppm in [3], in series [5], in series [6], in series [8], in [10] and in series [12] was at least 80% in each case.
In the case of `CO/C=C(\Oc1cc(-n2cc(C3CCCC3)cn2)ccc1C)C(=O)OC` [Compound E-58, methyl (Z)-2-[5-(4-cyclopentylpyrazol-1-yl)-2-methyl-phenoxy]-3-methoxy-prop-2-enoate], the pest or weed control at 200 ppm in the series with Alternaria solani is at least 80%; in series [2] it was at least 80%; in series [4], at least 80%; in series [7], at least 80%; in [9], at least 80%; in the series with Phakopsora pachyrhizi (setting [13]) it was at least 50%. Moreover, the pest or weed control at 200 ppm (in the series on Phytophthora infestans; with Plasmopara viticola; in [11]) was at least 80% each time. Besides, the inhibition of growth at 20 ppm in series [3], in series [5], in [6], in series [8], in [10] and in [12] was at least 80% in each case.
